Where “and” joins values, the source holds several entries; their conditions need not be identical. Equal values may be shown once. Read-outs that look alike come from different tables or passages of the source.
Assay type: physicochemical
Description: This therefore allows the use according to the invention of these mixture packs for plant protectant active substances which had previously shown to be “incompatible” in mixture with other active substances on or in a granule particle. Determining the “incompatibility” of individual active substances in an active substance mixture is effected by simply measuring the remaining residual amounts of active substance after a predetermined storage period. The reasons for this active substance “incompatibility” with other active substances may be based on a very wide range of factors. However, it poses a serious problem for formulation research, when active substance mixtures required by the market cannot be realized due to this problem. [table]

[1] = in Granule coformulation (2), prior art, n = 1
[2] = in Granule mixture (1), according to the invention, n = 3

Row | Compound | Absolute content after 2 months' storage at 40° C. [1] [% by weight] | Absolute content at the beginning of the storage [1] [% by weight] | Percentage change after 2 months' storage at 40° C. [1] [%] | Absolute content after 2 months' storage at 40° C. [2] | Absolute content at the beginning of the storage [2] | Percentage change after 2 months' storage at 40° C. [2] | Degradation during storage (in words) | Change in content during storage (in words) (in granule mixture (according to the invention))
1 | O=C(Nc1ccc(F)cc1F)c1cccnc1Oc1cccc(C(F)(F)F)c1 [Diflufenican, diflufenican] | 3.79 | 3.79 | 0.0 | 12.8 % by weight and 12.1 % by weight | 12.5 % by weight and 12.3 % by weight and 12.1 % by weight |  |  | 
2 | CC(C)N(C(=O)COc1nnc(C(F)(F)F)s1)c1ccc(F)cc1 [Flufenacet, flufenacet] | 12.10 | 12.40 | −2.4 | 39.2 % by weight and 38.3 % by weight and 39.9 % by weight | 39.8 % by weight and 40.0 % by weight and 40.6 % by weight | −1.5% and −4.3% and −1.7% |  | 
3 | COc1nc(C)nc(NC(=O)NS(=O)(=O)c2cc(I)ccc2C(=O)O)n1 [Iodosulfuron, iodosulfuron] | 0.039 | 0.135 | −71.0 | 0.367 % by weight and 0.360 % by weight and 0.382 % by weight | 0.330 % by weight and 0.312 % by weight and 0.378 % by weight |  | severe degradation | no appreciable change
